{"source": "patent US9505735B2", "about": "“Compounds for treating infectious diseases” (Whitehead Institute for Biomedical Research, priority 2012, dated 2016)", "key": {"[1]": {"test_system": "mammalian cells (293T, mouse embryo fibroblasts)", "experiment": "Mammalian cell toxicity testing (Cell Titer-Glo)", "format": "cell-based, human", "details": "20 μM, 48 hours", "protocol": "(B) Anti-fungal susceptibility testing for an evolutionarily diverse group of fungi treated with gepinacin. For A. terreus the MIC50 and MIC80 are plotted. (C) Anti-fungal susceptibility testing for wild type C. albicans and strains resistant to the three major classes of anti-fungals treated with gepinacin. (D) Mammalian cell toxicity testing for proliferating human cells in culture (293T) or quiescent cells (mouse embryo fibroblasts). Cells were treated with gepinacin (20 μM) for 48 hours after which relative viable cell number was measured by standard luciferase assay (Cell Titer-Glo®, Promega)."}, "[2]": {"test_system": "fluconazole-resistant C. albicans strains CaCi2, 8 and 17", "experiment": "Filamentation, liquid assay", "format": "cell-based", "details": "5 μM", "protocol": "For liquid assays, C. albicans strains were grown overnight in YPD with DMSO or 5 μM gepinacin. After dilution to an OD600 of 0.1 in Spider media, growth was continued for an additional 3 hours with agitation at 37° C. in the presence of compound before transfer to a 24 well plate for imaging (Shen, et al. (2008) Proc Natl Acad Sci USA 105, 20918-20923). Assays with S. cerevisiae strain Sigma 1278B on solid media were performed as previously described (Liu, et al. (1994) Science 266, 1723-1726) except gepinacin was added directly to partially cooled plate media and colonies were imaged after growth for 6 or 9 days at 30° C.\nBecause of its role in tissue invasion, a key determinant of fungal virulence is the ability to switch between yeast and filamentous forms (Shapiro, et al. (2011) Microbiol Mol Biol Rev 75, 213-267; Sudbery, (2011) Nat Rev Microbiol 9, 737-748; Noble, et al. (2010) Nat Genet 42, 590-598). A previous report has shown that mature GPI-anchors are required for this process (Richard, et al. (2002) Microbiology 148, 2125-2133). […] In the absence of gepinacin, all three drug-resistant clinical isolates underwent marked transformation to large macroscopic mats, readily visible to the eye. […]"}, "PIG-W": {"molecular_target": "T1, PIG-W (Homo sapiens, UniProt Q7Z7B1)", "T1 construct": "expressed in transfected cells; host or cells: S. cerevisiae BY4741-derived gwt1 deletion shuttle strain carrying a pAG415GPD-based PIG-W plasmid", "T1 sequence (Q7Z7B1 1-504)": "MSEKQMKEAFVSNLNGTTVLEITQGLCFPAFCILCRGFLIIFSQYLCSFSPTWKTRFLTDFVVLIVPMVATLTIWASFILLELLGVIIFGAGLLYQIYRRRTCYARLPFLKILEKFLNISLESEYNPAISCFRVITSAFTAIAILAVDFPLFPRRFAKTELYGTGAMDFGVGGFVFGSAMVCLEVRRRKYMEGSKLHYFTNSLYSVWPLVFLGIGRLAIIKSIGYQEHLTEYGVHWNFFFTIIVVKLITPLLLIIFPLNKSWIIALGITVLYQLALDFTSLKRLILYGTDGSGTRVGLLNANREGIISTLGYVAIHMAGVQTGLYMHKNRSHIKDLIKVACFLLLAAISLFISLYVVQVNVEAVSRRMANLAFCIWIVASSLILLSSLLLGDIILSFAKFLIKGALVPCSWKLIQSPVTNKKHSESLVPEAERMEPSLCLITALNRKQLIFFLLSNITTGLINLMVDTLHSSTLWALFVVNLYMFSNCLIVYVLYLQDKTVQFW", "experiment": "In vitro acylation assay with membranes of the PIG-W strain", "format": "biochemical", "details": "membranes of low copy plasmid strain", "protocol": "Photographs were taken after 24 hours. DMSO-treated cultures have large, dense colonies of C. albicans which are not present in gepinacin-treated cultures. (B) Anti-fungal susceptibility testing of S. cerevisiae strains in which the endogenous GWT1 gene had been replaced by plasmid-driven expression of the human gene (PIG-W), or the fungal gene (GWT1). CEN plasmids are low copy, […] plasmids are high copy.\nExperiments were performed using a previously published protocol (Umemara, et al. (2003) J Biol Chem 278, 23639-23647) with the following modifications; UDP[^3H]GlcNAc was used instead of [^14C] and TLC plates were imaged by autoradiography. Lipid extracts were treated overnight with phosphatidylinositol-specific phospholipase C to confirm that the band identified as GlcN-(acyl)PI was resistant to cleavage (data not shown)."}}, "data": [{"smiles": "COc1ccc(NC(=O)COc2cccc(OCC(C)C)c2)cc1", "note": "[gepinacin]", "values": [{"measurement": "cytotoxicity for mammalian cells", "setting": "[1]", "value": "Lack of cytotoxicity"}, {"measurement": "filamentation in Spider medium", "setting": "[2]", "value": "completely blocked"}, {"measurement": "activity of the human enzyme (GlcN-(acyl)PI formation)", "setting": "PIG-W", "value": "not inhibited"}]}]}
